The text below walks through data of PubChem BioAssay AID179 (DTP/NCI, 2004).

Activity calls are given as the source filed them.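 How the source made its calls: active means compounds giving half or more protection of infected cells from virus-caused growth loss, again on retest; inactive means the rest.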

The test system of the assay is CEM cells HIV-1 protection, formazan growth assay. Nature of the assay: NCI AIDS Antiviral Assay. The settings on record: for IC50: measured here: growth of uninfected CEM cells. The method in brief:
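Human CEM cells, uninfected and HIV-1-infected, exposed to five drug concentrations; growth measured by soluble formazan assay and scored as percent protection from infection, with protecting compounds retested.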

Regarding `CCCC(C(=O)Nc1cccc2[nH]cnc12)C(=O)OCC` (configuration not stated), the EC50 is > 200 µM and the half-inhibitory concentration (IC50) was 158 µM. On the same counts, the results for `CC1(C)COC(c2ccc(C(=O)c3ccc(Cl)cc3)cc2)=N1` are > 200 µM and 81.3 µM.

In the case of `CCCCCCCCCCNCCSSCc1ccc(Cl)cc1`, the outcome was inactive. Consider `O=C1Cc2c(-c3ccccc3)cc(-c3ccc(Cl)cc3)nc2-c2ccccc2N1`, for which the EC50 is > 200 µM and the IC50 was determined as 93.3 µM. The corresponding values for `COC(=O)[C@H](Cc1c[nH]c2ccccc12)NC(=O)OCC1OC(n2cc(C)c(=O)[nH]c2=O)CC1N=[N+]=[N-]` (some centres not stated) are > 158 µM and 132 µM. The corresponding values for `O=[N+]([O-])/C=C1\COCc2cc3c(cc21)OCO3` are > 200 µM and 28.8 µM. Turning to `Cc1nc(N)nc(N)c1CCCCc1ccc(N)cc1`, the outcome was inactive. The same measure, in the same setting: to `COC1=CC(=O)OC(/C=C(C)/C=C/C2=C(C)CCCC2(C)C)C1` (configuration not stated) belongs “inactive”.

As for `COc1ccc2nc(CC(=N)c3ccc(N(C)C)cc3)ccc2c1`, the EC50 is > 200 µM and the IC50 was 23.4 µM.

Take `Cc1cc(NC(=O)Nc2ccc(N=Nc3cc(S(=O)(=O)O)c4cccc(S(=O)(=O)O)c4c3)c(C)c2)ccc1N=Nc1cc(S(=O)(=O)O)c2cccc(S(=O)(=O)O)c2c1`: the EC50 was 20 µM and the IC50 is > 100 µM.

On to `O=[N+]([O-])c1ccc(S(=O)(=O)NCCSSCCNS(=O)(=O)c2ccc([N+](=O)[O-])cc2)cc1`, for which the EC50 is > 200 µM and the IC50 turned out to be 10.5 µM.

Regarding `C[C@]12CC[C@@H]3c4cc(Br)c(O)c(Br)c4CC[C@H]3[C@@H]1CC(Br)C2=O` (some centres not stated), the EC50 was > 200 µM and the 50% inhibitory concentration (IC50) was found to be 3.47 µM. On the same counts, the results for `CN1C(=O)C2C(C1=O)[C@H]1c3ccccc3C=CN1[C@@H]2C(=O)c1ccccc1` (some centres not stated) are > 200 µM and 148 µM. For `O=c1ccn(CC2(CO)CCC2)c(=O)[nH]1`, the EC50 is > 200 µM and the IC50 is > 200 µM. As to `O=C1NC2Cc3ccccc3C(C2)O1` (configuration not stated), the EC50 is > 200 µM and the IC50 is > 200 µM. For the compound `CC1(C)CSCC(C)(C)C2(C=CC=CC=N2)C1=O` (configuration not stated), the EC50 is > 191 µM and the concentration for half-maximal inhibition (IC50) came out at 26.3 µM. As for `Cn1ccnc1SC(F)(F)c1nc2ccccc2o1`, the EC50 was > 200 µM and the IC50 is 148 µM. As for `Cc1cc(C)n(-c2nc(-c3ccccc3)cs2)n1`, the EC50 was > 200 µM and the 50% inhibitory concentration (IC50) was 72.4 µM. On the same counts, the results for `O=C1N=C(C=c2ccc(=Cc3[nH]c(=O)n(CN4CCCCC4)c3O)cc2)C(=O)N1CN1CCCCC1` are > 100 µM and 22.4 µM. With `NCCC1([N+](=O)[O-])C=CN=CC1` (configuration not stated), the outcome was inactive. As to `CC1=CC(C)N(C(=O)c2ccc(Cl)cc2)CCN1C(=O)c1ccc(Cl)cc1` (configuration not stated), the EC50 is > 44.7 µM and the half-inhibitory concentration (IC50) was 33.9 µM.

Take `COc1ccc(C[C@@H](CO)NC2=C(C#N)CCC2)cc1`: the EC50 is > 200 µM and the concentration for half-maximal inhibition (IC50) stood at 64.6 µM. Regarding `CCC1(c2cccc(C)c2)Oc2ccccc2-n2cccc2C1=O` (configuration not stated), the EC50 is 0.537 µM and the IC50 came to 126 µM. On the same counts, the results for `c1ccc(CCN2CCc3[nH]c4ccccc4c3C2)cc1` are > 200 µM and 39.8 µM. The corresponding values for `CC(=O)Nc1cc2c3c(c1)CCCN3CCC2` are > 200 µM and 39.8 µM. For `CC(Oc1cc2oc(=O)cc(-c3ccccc3)c2cc1Cl)C(=O)O` (configuration not stated), the outcome was inactive. For `CC1=C(c2cc(C(=O)Nc3cccc(C(F)(F)F)c3)ncn2)Sc2ccccc2N1`, the EC50 was > 83.2 µM and the IC50 is > 83.2 µM. Regarding `N#Cc1c(=N)cc2c3ccccc3oc3c(C#N)c(N)[nH]c1c32`, the EC50 was > 200 µM and the IC50 worked out at 195 µM. For the compound `CC(=O)CC(=O)CCCC(=O)Nc1ccc(Cl)cc1C`, the outcome was inactive.

By EC50 is commonly meant the midpoint of the concentration-response curve. One may read the IC50 as the concentration that gives 50% inhibition. High values mean weaker potency, low ones greater potency.
